Data taken from US20190211066A1 (INSTITUT NATIONAL DE LA SANTE ET DE LA RECHERCHE M EDICALE …, priority 2010, published 2019).
“Also recorded” adds a separate entry of the source.

Tests used:
hCMEC/D3 cells [1] = experiment: Quantitative analysis of ezrin (and other proteins) recruitment under Nm bacterial colonies; settings: for ezrin recruitment / ezrin-containing cortical plaques under Nm colonies after siRNA: infection three days after transfection
Text: The recruitment efficiency was estimated by determining the proportion of colonies positive for the indicated protein of interest. At least 50 colonies were observed per coverslip. Each experiment was repeated several times in duplicate or triplicate. Data was examined for significance using Student's t-test.
(§2) The day before the infection, hCMEC/D3 cells were serum-starved in EBM-2 medium containing 0.1% Bovine Serum albumin (BSA). The day of infection, bacteria from an overnight culture were adjusted to OD600=0.05 and incubated for 2 h at 37° C. in pre-warmed starvation medium. Bacteria were added to cells at a multiplicity of infection (MOI) of 100 and allowed to adhere for 30 minutes. Unbound bacteria were washed with fresh medium and infection was allowed to proceed for 2 h. When needed, drugs were added to cell culture 1 h before infection. Bacteria were tested for growth and aggregation. […] The OD600 was then measured after 1, 2, 3, 4 and 8 h. Aggregation was determined after 2 h of incubation in EBM2, 0.1% BSA in the presence or absence of 100 μM isoproterenol at 37° C. in a 5% CO2 atmosphere under constant shaking.
For each Nm strain, the recruitment efficiency was estimated by determining the proportion of colonies that efficiently recruited the protein of interest in a “honeycomb shape” just under the colonies. […] At least 50 colonies were scrutinized per coverslip. Each experiment was repeated several times (at least 3). Data was examined for significance using Student's t-test.

hCMEC/D3 cells [2] = experiment: Growth (size) of Nm colonies on cells under flow; assay type: cell-based, human
Method: (§1) hCMEC/D3 cells were grown on disposable flow chambers (15 μ-Slide VI, IBIDI) coated with 5 μg/cm^2 of rat-tail collagen type I. For experiments investigating Nm colony growth under shear stress, 10^7 bacteria were introduced into the flow chamber and allowed to adhere for […] without flow. Subsequently, a flow corresponding to a shear stress of 0.2 dyn/cm^2 was applied using a syringe pump (Harvard Apparatus). For adhesion assays under shear stress, 10^7 bacteria were allowed to adhere for 20 min under a shear stress of 0.04 dyn/cm^2, then the chambers were washed 1 min under a shear stress of 1 dyn/cm^2 (Mairey et al., 2008. J Exp Med 203, 1939-1950).
GFP expression in bacteria was induced by adding 1 mM IPTG in EBM2, 0.1% BSA. For experiments aimed at determining the growth of colonies under shear stress, 107 bacteria were then introduced into the flow chamber and allowed to adhere for 20 min without flow. Subsequently, a flow corresponding to a shear stress of 0.2 dyn/cm2 was applied using a syringe pump (Harvard Apparatus). For adhesion assays under shear stress, […] were introduced into the flow chamber and allowed to adhere for 20 min under a shear stress of 0.04 dyn/cm2, subsequently the chamber was washed 1 min under a shear stress of 1 dyn/cm2, Fluorescent bacteria in the chambers were observed using an Olympus CKX41 inverted microscope with a 20× objective, equipped with a shutter for the fluorescence I amp and a Hamamatsu ORCA285 CCD camera. Images were collected and processed using the Openlab software (Improvision). The field under observation corresponded to a surface of 425 μm by 320 μm with a resolution of 0.63 μm per pixel. Images were analyzed using the lmageJ software.

hCMEC/D3 cell monolayers = experiment: Nm transmigration assay and cell-cell junction gaps; assay type: cell-based, human
Method: hCMEC/D3 cells were grown on 3 μm pore size MilliCell® inserts and infected at a MOI of 10, corresponding to 10^6 bacteria per insert. Four hours after infection, inserts were placed in a well with fresh medium. After additional 30 min, the number of bacteria, which had crossed the cell monolayer was determined by plating the content of the well and counting the number of colony forming units. To estimate the surface and number of macroscopic cell-cell junction openings, MilliCell® inserts were fixed in 4% PFA and immunostained for VE-cadherin and actin, Several baso-lateral cross-sections of each insert were acquired using a Leica SP5 confocal microscope. Surface and number of gaps within the hCMEC/D3 cell monolayer was determined using Leica Application Suite-AF (LAS-AF) software. Data were expressed as the number of gaps per 4×10 ^5 μm^2 of hCMEC/D3 cell monolayer surface. The size of gaps was determined using the apparent size of a Nm diplococcus as surface unit (approximately 1.7 μm^2).
Briefly, hCMEC/D3 cells were grown on 3 μm pore size MilliCell® inserts and infected at a MOI of 10 (10^6 bacteria per insert). […] After 30 min, the number of bacteria, which had crossed the monolayer of endothelial cells, was then measured by plating the content of dilutions of the lower compartment on agar plates and counting the number of colony forming units (CFU). […]

hCMEC/D3 cells [3] = experiment: Nm adhesion under shear stress (under flow); assay type: cell-based, human; settings: pre-treatment with 10 μM isoproterenol, shear stress 0.04 dyn/cm^2
Method: as §1
GFP expression in bacteria was induced by adding 1 mM IPTG in EBM2, 0.1% BSA. […] For adhesion assays under shear stress, […] were introduced into the flow chamber and allowed to adhere for 20 min under a shear stress of 0.04 dyn/cm2, subsequently the chamber was washed 1 min under a shear stress of 1 dyn/cm2, Fluorescent bacteria in the chambers were observed using an Olympus CKX41 inverted microscope with a 20× objective, equipped with a shutter for the fluorescence I amp and a Hamamatsu ORCA285 CCD camera. […] Images were analyzed using the lmageJ software.

hCMEC/D3 cells [4] = experiment: Static adhesion of Nm (absence of flow); settings: isoproterenol pre-treatment
Method: as §2

N. meningitidis = experiment: Nm growth in culture and bacterial aggregation; settings: 100 μM isoproterenol; data not shown

## GRK2 siRNA: small interfering RNA targeting human GRK2 (SEQ ID NO: 6) (guide AAGAAGUACGAGAAGCUGGAGUU; chemistry not given here)
hCMEC/D3 cells [1]; siRNA-treated hCMEC/D3 cells
  ezrin recruitment / ezrin-containing cortical plaques under Nm colonies after siRNA: inhibited
hCMEC/D3 cells [1]; siRNA-treated hCMEC/D3 cells, βarr2-GFP readout
  βarr2 recruitment under Nm colonies after siRNA: inhibited

## βarr1 and βarr2 siRNAs: small interfering RNAs targeting human βarrestin-1 (SEQ ID NO: 4) and βarrestin-2 (SEQ ID NO: 5) (guide 1 AAAGCCUUCUGCGCGGAGAAU; guide 2 GGCUUGUCCUUCCGCAAAGAC; listed as RNA, chemistry not given here)
hCMEC/D3 cells [1]; siRNA-treated Nm-infected hCMEC/D3 cells
  recruitment of VE-cadherin, p120-catenin, F-actin and ezrin into cortical plaques after siRNA: markedly and simultaneously affected
hCMEC/D3 cells [1]; siRNA-treated hCMEC/D3 cells
  Src recruitment under Nm colonies after siRNA: markedly reduced
  ezrin recruitment / ezrin-containing cortical plaques under Nm colonies after siRNA: decrease

## CC(C)NCC(O)COc1cccc2ccccc12 (centres unmarked) [propranolol]
hCMEC/D3 cells [1]; 100 nM propranolol added during pre-incubation with 10 μM isoproterenol
  reversal of the effect of isoproterenol pre-treatment on Nm-promoted ezrin recruitment: blocked the effect of isoproterenol
hCMEC/D3 cells [1]; preincubation with saturating propranolol alone
  number of ezrin-containing cortical plaques elicited by Nm, agent alone: no effect

## CC(C)NCC(O)c1ccc(O)c(O)c1 (centres unmarked) [isoproterenol]
hCMEC/D3 cells [1]; hCMEC/D3 cells pre-treated with agonist for 2 h before Nm inoculation, saturating (10×KD) concentrations
  effect on Nm-induced ezrin recruitment: showed an effect
hCMEC/D3 cells [1]; isoproterenol dose response, hCMEC/D3 cells
  number of ezrin-containing cortical plaques: dose-dependent reduction
hCMEC/D3 cells [2]; preincubation of cells for 1 h with 10 μM before perfusion of bacteria, control 20% after 4 h
  proportion of small colonies (≤12 μm^2, about 4 bacteria) under flow: ≈ 70%
hCMEC/D3 cells [2]; preincubation of cells for 1 h with 10 μM before perfusion of bacteria, control about 50% after 4 h
  proportion of large colonies (48 μm^2 or more, ≥16 bacteria) under flow: ~10%
hCMEC/D3 cell monolayers; isoproterenol pre-treatment 10 μM, 1 h, gaps of all size
  number of cell-cell junction gaps induced by Nm: noticeably reduced
hCMEC/D3 cell monolayers; isoproterenol pre-treatment 1 h, 10 μM
  number of meningococci crossing the monolayer (lower chamber of transwells): markedly reduced
hCMEC/D3 cells [3]
  reduction of bacterial adhesion / number of colonies forming under flow: 40%
hCMEC/D3 cells [4]
  bacterial adhesion in static conditions (absence of flow): No significant difference; also recorded: did not reduce; also recorded: similar
N. meningitidis
  direct inhibition of Nm growth in culture or of bacterial aggregation properties: not due to a direct inhibition

## C=C[C@@]1(C)CC(=O)[C@]2(O)[C@@]3(C)[C@@H](O)CCC(C)(C)[C@@H]3[C@H](O)[C@H](OC(C)=O)[C@@]2(C)O1 [forskolin]
hCMEC/D3 cells [2]; pre-incubation 1 h
  number and size of Nm colonies under flow compared to control conditions: no significant effect
